Data taken from ChEMBL document CHEMBL1165930, “The anticancer activity of 3- and 10-bromofascaplysins is mediated by caspase-8, -9, -3-dependent apoptosis” (Bioorg Med Chem, 2010).
Activity calls are given as the source filed them. The calls are words filed in the database; no cut-off is given here.

Tests used:
HL-60 [1] = test: Induction of apoptosis in human HL60 cells assessed as early apoptotic cells at 250 nM after 24 hrs by FITC-conjugated annexin V and propidium iodide staining-based flow cytometry; format: functional
HL-60 [2] = test: Induction of apoptosis in human HL60 cells assessed as decrease in PARP level at 250 nM after 24 hrs by Western blot analysis; format: functional, cell-based
HL-60 [3] = test: Induction of apoptosis in human HL60 cells assessed as decrease in PARP level at 500 nM after 24 hrs by Western blot analysis; format: functional, cell-based
HL-60 [4] = test: Induction of apoptosis in human HL60 cells assessed as decrease in procaspase-9 level at 500 nM after 24 hrs by Western blot analysis; format: functional, cell-based
HeLa = test: Cytotoxicity against human HeLa cells after 22 hrs by MTS assay; format: functional, cell-based
DLD-1 = test: Cytotoxicity against human DLD1 cells after 22 hrs by MTS assay; format: functional, cell-based; conditions: DLD-1, 22 h
HL-60 [5] = test: Cytotoxicity against human HL60 cells after 22 hrs by MTS assay; format: functional, cell-based; conditions: HL-60, 22 h
[6] = Inhibition of EGF-stimulated viability of mouse JB6 Cl41 cells after 22 hrs by MTS assay; format: functional, cell-based; conditions: JB6 Cl41, 22 h
HL-60 [7] = test: Induction of apoptosis in human HL60 cells assessed as total apoptotic cells at 50 to 100 nM after 24 hrs by FITC-conjugated annexin V and propidium iodide staining-based flow cytometry; format: functional
HL-60 [8] = test: Induction of apoptosis in human HL60 cells assessed as total apoptotic cells at 1000 nM after 24 hrs by FITC-conjugated annexin V and propidium iodide staining-based flow cytometry; format: functional
HL-60 [9] = test: Induction of apoptosis in human HL60 cells assessed as early apoptotic cells at 50 nM after 24 hrs by FITC-conjugated annexin V and propidium iodide staining-based flow cytometry; format: functional
HL-60 [10] = test: Induction of apoptosis in human HL60 cells assessed as decrease in procaspase-8 level at 500 nM after 24 hrs by Western blot analysis; format: functional, cell-based
HL-60 [11] = test: Induction of apoptosis in human HL60 cells assessed as decrease in Bid protein level at 500 nM after 24 hrs by Western blot analysis; format: functional, cell-based
MDA-MB-231 = test: Cytotoxicity against human MDA-MB-231 cells after 22 hrs by MTS assay; format: functional, cell-based; conditions: MDA-MB-231, 22 h
[12] = Cytotoxicity against human SNUC4 cells after 22 hrs by MTS assay; format: functional, cell-based; conditions: SNU-C4, 22 h
HL-60 [13] = test: Induction of apoptosis in human HL60 cells assessed as decrease in procaspase-3 level at 500 nM after 24 hrs by Western blot analysis; format: functional, cell-based
HL-60 [14] = test: Induction of apoptosis in human HL60 cells assessed as change in mitochondrial permeability at 250 nM after 24 hrs by DiOC6 staining-based flow cytometry (RVB = 90.3%); format: functional
SK-MEL-28 = test: Cytotoxicity against human SK-MEL-28 cells after 22 hrs by MTS assay; format: functional, cell-based; conditions: SK-MEL-28, 22 h
THP-1 = test: Cytotoxicity against human THP1 cells after 22 hrs by MTS assay; format: functional, cell-based; conditions: THP-1, 22 h
HL-60 [15] = test: Induction of apoptosis in human HL60 cells assessed as early apoptotic cells at 500 to 1000 nM after 24 hrs by FITC-conjugated annexin V and propidium iodide staining-based flow cytometry; format: functional

For O=C1c2ccccc2-[n+]2ccc3c([nH]c4cc(Br)ccc43)c21.[Cl-], the Activity (HL-60 [1]) was 40%, the inhibition (HL-60 [2]) was “Active” and the inhibition (HL-60 [3]) was “Active”. The inhibition (HL-60 [4]) was “Active”, the IC50 (HeLa) was 86 nM and the IC50 (DLD-1) was 118 nM. The IC50 (HL-60 [5]) was 142 nM, the IC50 [6] was 144 nM and the Activity (HL-60 [7]) was 20%. The Activity (HL-60 [8]) was 90%, the Activity (HL-60 [9]) was 5% and the inhibition (HL-60 [10]) was “Active”. For the same compound, the inhibition (HL-60 [11]) was “Active”, the IC50 (MDA-MB-231) was 173 nM and the IC50 [12] was 125 nM. For the same compound, the inhibition (HL-60 [13]) was “Active”, the Activity (HL-60 [14]) was 60.1% and the IC50 (SK-MEL-28) was > 1000 nM. The IC50 (THP-1) was 161 nM and the Activity (HL-60 [15]) was 20%.
